Measured values reported in patent US20230114241A1, “METHODS OF TREATING EPILEPSY USING THE SAME” (Trevena, Inc., priority 2019, published 2023).

Biological target: human sphingosine-1-phosphate receptor 1 (S1P1) (Homo sapiens, UniProt P21453)
Assay: Inhibition of cAMP production (HTRF cAMP HiRange), S1P1 CHO-K1 cells
Format: cell-based
Details: inhibition of cAMP production, S1P1; read-out: hS1P1 CAMP pEC50 (converted)
In short: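 CHO-K1 cells co-expressing human S1P1 (C-terminal ProLink tag) and EA-β-arrestin2, plated overnight; after 30 min compound incubation at 37 °C, intracellular cAMP measured by HTRF TR-FRET following 1 h at room temperature. Values normalized to fingolimod.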

human sphingosine-1-phosphate receptor 1 (S1P1), sequence (P21453 whole entry): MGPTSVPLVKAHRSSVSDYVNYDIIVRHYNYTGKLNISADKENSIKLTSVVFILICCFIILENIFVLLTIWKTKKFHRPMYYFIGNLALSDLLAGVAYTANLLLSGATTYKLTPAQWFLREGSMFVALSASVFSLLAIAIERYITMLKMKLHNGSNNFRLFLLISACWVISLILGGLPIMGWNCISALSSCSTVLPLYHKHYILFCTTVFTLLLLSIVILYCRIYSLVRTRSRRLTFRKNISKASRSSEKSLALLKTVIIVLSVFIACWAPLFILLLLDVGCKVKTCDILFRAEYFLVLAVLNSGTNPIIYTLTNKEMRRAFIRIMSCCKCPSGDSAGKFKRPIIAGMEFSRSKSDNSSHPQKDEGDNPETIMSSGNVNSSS

Structure (SMILES) | EC50 [nM]
CC(C)n1nnc2cc(-c3nc4c(o3)CCCc3ccccc3-4)ccc21 [Compound 434, 4-[1-(propan-2-yl)-1H-1,2,3-benzotriazol-5-yl]-5-oxa-3-azatricyclo[8.4.0.0^2,6] tetradeca-1(14),2(6),3,10,12-pentaene] | > 316
COc1cc(C)c2nc(-c3ccc4c(c3)nnn4C(C)C)oc2c1 [Compound 436, 2-(1-isopropyl-1H-benzo[d][1,2,3]triazol-5-yl)-6-methoxy-4-methylbenzo[d]oxazole] | < 316
Cc1ccc2oc(-c3ccc4c(c3)nnn4CC(C)C)nc2c1 [Compound 437, 2-(1-isobutyl-1H-benzo[d][1,2,3]triazol-5-yl)-5-methyl-benzo[d]oxazole] | < 316
CC(C)n1nnc2cc(-c3nc(-c4ccccc4N)co3)ccc21 [Compound 438, 2-{2-[1-(propan-2-yl)-1H-1,2,3-benzotriazol-5-yl]-1,3-oxazol-4-yl}aniline] | < 316
Cc1ccncc1-c1noc(-c2ccc3c(c2)nnn3C2CCOCC2)n1 [Compound 439, 5-[3-(4-methylpyridin-3-yl)-1,2,4-oxadiazol-5-yl]-1-(oxan-4-yl)-1H-1,2,3-benzotriazole] | > 316
N#Cc1cc(-c2nc(-c3ccc4sc(N)nc4c3)no2)ccc1NCC1CC1 [Compound 440, 5-(3-(2-aminobenzo[d]thiazol-5-yl)-1,2,4-oxadiazol-5-yl)-2-((cyclopropylmethyl)amino)benzonitrile] | < 316
CC(C)Nc1ccc(-c2nc(-c3ccc4sc(N)nc4c3)no2)cc1C#N [Compound 441, 5-(3-(2-aminobenzo[d]thiazol-5-yl)-1,2,4-oxadiazol-5-yl)-2-(isopropylamino) benzonitrile] | < 316
CCC1(CC)CC(=O)c2cc(-c3nc(-c4ccc5sc(N)nc5c4)no3)ccc2O1 [Compound 446, 6-(3-(2-aminobenzo [d]thiazol-5-yl)-1,2,4-oxadiazol-5-yl)-2,2-diethylchroman-4-one] | > 316
COc1cccc2oc(-c3ccc4c(c3)nnn4CC(C)C)nc12 [Compound 450, 2-(1-isobutyl-1H-benzo[d][1,2,3]triazol-5-yl)-4-methoxy-benzo[d]oxazole] | < 316

Other lines, results leading:

EC50 [nM] | Structure (SMILES)
< 316 | COc1ccc2oc(-c3ccc4c(c3)nnn4CC(C)C)nc2c1 [Compound 451, 2-(1-isobutyl-1H-benzo[d][1,2,3]triazol-5-yl)-5-methoxy-benzo[d]oxazole]
> 316 | COc1ccc2nc(-c3ccc4c(c3)nnn4CC(C)C)oc2c1 [Compound 452, 2-(1-isobutyl-1H-benzo[d][1,2,3]triazol-5-yl)-6-methoxy-benzo[d]oxazole]
< 316 | CC(C)n1nnc2cc(-c3nc4c(o3)CCc3sccc3-4)ccc21 [Compound 456, 4-[1-(propan-2-yl)-1H-1,2,3-benzotriazol-5-yl]-5-oxa-10-thia-3-azatricyclo[7.3.0.0^2,6] dodeca-1(9),2(6),3,11-tetraene]
< 316 | CC(C)n1nnc2cc(-c3nc4c(ccc5sccc54)o3)ccc21 [Compound 457, 4-[1-(propan-2-yl)-1H-1,2,3-benzotriazol-5-yl]-5-oxa-10-thia-3-azatricyclo[7.3.0.0^2,6] dodeca-1(9),2(6),3,7,11-pentaene]
> 316 | CC(=O)Nc1ccccc1-c1coc(-c2ccc3c(c2)nnn3C(C)C)n1 [Compound 458, N-(2-{2-[1-(propan-2-yl)-1H-1,2,3-benzotriazol-5-yl]-1,3-oxazol-4-yl}phenyl)acetamide]
> 316 | CC(C)n1nnc2cc(-c3nc(-c4cccs4)co3)ccc21 [Compound 459, 1-(propan-2-yl)-5-[4-(thiophen-2-yl)-1,3-oxazol-2-yl]-1H-1,2,3-benzotriazole]
> 316 | CC(C)(O)Cn1nnc2cc(-c3nc(-c4ccncc4C(F)(F)F)no3)ccc21 [Compound 460, 2-methyl-1-(5-{3-[3-(trifluoromethyl)pyridin-4-yl]-1,2,4-oxadiazol-5-yl}-1H-1,2,3-benzotriazol-1-yl)propan-2-ol]
